The target of this test is T1, AMPKα1β1γ1 (Homo sapiens, UniProt Q13131+Q9Y478).
T1 construct: purchased CARNA 02-113
The test is described as follows: In vitro assay for AMPK (α1β1γ1) enzyme agonist activity (TR-FRET). Type of test: biochemical. The following applies: for Emax: 1 h, read-out: Top value. As to the method: Test compounds were dissolved in DMSO to prepare 10 mM stock solution, which was then diluted to the predetermined test concentrations using kinase buffer (50 mM HEPES, 1 mM EDTA, 10 mM MgCl2, 0.01% Brij-35, pH = 7.5). Into a 384-well plate were added 5 µL of AMPKα1β1γ1 (CARNA, 02-113), 2.5 µL of the diluted test compound solution, and 2.5 µL of a mixture of Ulight-CRBN and ATP, resulting in the following final concentrations: AMPKα1β1γ1 at 1.6 mg/L, Ulight-CRBN at 5 nM, and ATP at 0.1 mM. The components were mixed evenly, and reacted at room temperature for 1 hour. Subsequently, 5 µL of LANCE Detection Buffer (CR97-100, PerkinElmer) containing 40 mM EDTA was added. After standing for 5 minutes, 5 µL of 4× Eu-anti-phospho-CREB Antibody (TRF0200-M, PerkinElmer) was added, and the mixture was allowed to stand at room temperature for 1 h. The values of samples in each well were read using a microplate reader in TR-FRET mode (excitation wavelength: 320 nm; emission wavelengths: 665 nm and 615 nm). By comparing the values with those of the blank control group (1% DMSO) and the positive control group (1 µM A769662), the relative activity of AMPKα1β1γ1 at each test compound concentration (4.57 nM, 13.72 nM, 41.15 nM, 123.46 nM, 370.37 nM, 1111.11 nM, 3333.33 nM, and 10000 nM) was calculated, with the activity of 1 µM A769662 set as 100%. The data were analysed in GraphPad Prism 9 using a Dose-response-Stimulation four-parameter regression model to obtain the Top and EC50 values for the test compounds. [drawing 522] has a structure of A769662.

The mark [1] stands for this setting: AMPKα1β1γ1 1.6 mg/L, ATP 0.1 mM, 1 hour at room temperature, four-parameter regression, read-out: EC50.

In EP4748833A1, “AMPK AGONIST AND USE THEREOF” (priority 2023, dated 2025) one finds Emax and EC50 data, which are given here for 33 molecules.

In general, EC50 refers to the midpoint of the concentration-response curve.

Like-named read-outs stand apart in the source and are kept apart here.

T1 sequence (Q13131 whole entry): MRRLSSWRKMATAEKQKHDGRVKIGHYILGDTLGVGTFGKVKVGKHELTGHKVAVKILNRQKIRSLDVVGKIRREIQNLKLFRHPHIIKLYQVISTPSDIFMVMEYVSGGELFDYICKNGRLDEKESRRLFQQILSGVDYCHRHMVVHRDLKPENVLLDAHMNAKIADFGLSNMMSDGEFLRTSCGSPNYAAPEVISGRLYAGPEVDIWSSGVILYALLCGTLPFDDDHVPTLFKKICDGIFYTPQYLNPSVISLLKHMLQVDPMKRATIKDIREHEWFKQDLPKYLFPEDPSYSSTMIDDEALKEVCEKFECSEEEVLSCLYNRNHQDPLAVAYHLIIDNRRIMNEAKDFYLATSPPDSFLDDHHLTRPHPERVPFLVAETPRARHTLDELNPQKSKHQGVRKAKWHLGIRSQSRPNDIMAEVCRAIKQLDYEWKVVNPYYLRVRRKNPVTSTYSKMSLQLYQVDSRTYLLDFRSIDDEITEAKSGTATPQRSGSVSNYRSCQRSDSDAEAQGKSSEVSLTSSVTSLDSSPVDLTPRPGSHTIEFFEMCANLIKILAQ
T1 sequence (Q9Y478 whole entry): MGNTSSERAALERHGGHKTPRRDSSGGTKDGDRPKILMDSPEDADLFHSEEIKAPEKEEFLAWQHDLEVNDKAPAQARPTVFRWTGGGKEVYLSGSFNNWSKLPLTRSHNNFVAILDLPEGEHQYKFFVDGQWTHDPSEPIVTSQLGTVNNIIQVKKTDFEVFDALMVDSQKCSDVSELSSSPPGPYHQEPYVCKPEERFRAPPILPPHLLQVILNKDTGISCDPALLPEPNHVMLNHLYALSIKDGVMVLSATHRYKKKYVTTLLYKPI
T1 sequence (P54619 whole entry partner): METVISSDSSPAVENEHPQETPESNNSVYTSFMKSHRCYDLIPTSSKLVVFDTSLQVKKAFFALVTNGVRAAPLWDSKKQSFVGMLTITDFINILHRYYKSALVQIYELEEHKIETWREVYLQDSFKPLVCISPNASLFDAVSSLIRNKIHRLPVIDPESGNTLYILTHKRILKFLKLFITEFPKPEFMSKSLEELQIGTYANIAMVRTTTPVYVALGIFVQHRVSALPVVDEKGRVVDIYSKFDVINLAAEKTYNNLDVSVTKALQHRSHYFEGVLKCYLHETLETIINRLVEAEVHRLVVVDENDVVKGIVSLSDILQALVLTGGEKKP

Take `O=C(O)Cc1c[nH]c2cc(Cl)c(-c3ccc(C4(O)CCC4)cc3)nc12` [Compound 1]: the Emax is 50 to 70%. Under setting [1], the concentration for a half-maximal effect (EC50) was greater than 800 nM.
Take `O=C(O)C(=O)c1c[nH]c2cc(Cl)c(-c3ccc(C4(O)CCC4)cc3)cc12` [Compound 2]: the Emax was 70 to 100%. Further, under setting [1], the concentration for a half-maximal effect (EC50) is less than 200 nM.
The like results for `O=C(O)C(=O)c1c[nH]c2cc(Cl)c(-c3ccc(C4(O)CCC4)cc3)nc12` [Compound 3] were, in that order, 50 to 70% and greater than 800 nM.
As to `O=C(O)C(=O)c1c[nH]c2cc(Cl)c(-c3ccc(-c4ccccc4O)cc3)cc12` [Compound 4], the Emax lay in the range of 50 to 70%. The EC50 under setting [1] is less than 200 nM.
The matching figures for `Cn1ccc2cc(-c3cc4c(C(=O)C(=O)O)c[nH]c4cc3Cl)ccc21` [Compound 5]: 70 to 100% and less than 200 nM.
The matching figures for `O=C(O)C(=O)c1c[nH]c2cc(Cl)c(-c3ccc(C4(CO)CC4)cc3)cc12` [Compound 6]: greater than 100% and less than 200 nM.
The like results for `COc1ccc(-c2cc3c(C(=O)C(=O)O)c[nH]c3cc2Cl)cc1` [Compound 7] were, in that order, 70 to 100% and 200 to 800 nM.
On to `O=C(O)C(=O)c1c[nH]c2cc(Cl)c(-c3ccc(-c4ccccc4)cc3)cc12` [Compound 8], for which the Emax is less than 50%. For the same molecule, the concentration giving a half-maximal response (EC50) under setting [1] was less than 200 nM.
The matching figures for `O=C(NCc1ccccn1)c1c[nH]c2cc(Cl)c(-c3ccc(C4(O)CCC4)cc3)cc12` [Compound 9]: greater than 100% and greater than 800 nM.
The like results for `O=C(NCC1COC1)c1c[nH]c2cc(Cl)c(-c3ccc(C4(O)CCC4)cc3)cc12` [Compound 10] were, in that order, 50 to 70% and greater than 800 nM.
In the case of `O=C(NCc1ccno1)c1c[nH]c2cc(Cl)c(-c3ccc(C4(O)CCC4)cc3)cc12` [Compound 11], the Emax was 70 to 100%. The EC50 under setting [1] lay within 200 to 800 nM.
The like results for `O=C(NCc1cnoc1)c1c[nH]c2cc(Cl)c(-c3ccc(C4(O)CCC4)cc3)cc12` [Compound 12] were, in that order, greater than 100% and greater than 800 nM.
The like results for `O=C(Nc1ncc[nH]1)c1c[nH]c2cc(Cl)c(-c3ccc(-c4ccccc4)cc3)cc12` [Compound 13] were, in that order, greater than 100% and greater than 800 nM.
Consider `O=C(NCc1ccco1)c1c[nH]c2cc(Cl)c(-c3ccc(C4(CO)CC4)cc3)cc12` [Compound 14], for which the Emax is greater than 100%. The EC50 under setting [1] was greater than 800 nM.
The matching figures for `O=C(NCc1cccs1)c1c[nH]c2cc(Cl)c(-c3ccc(C4(CO)CC4)cc3)cc12` [Compound 15]: greater than 100% and greater than 800 nM.
Consider `O=C(NCc1ncco1)c1c[nH]c2cc(Cl)c(-c3ccc(C4(CO)CC4)cc3)cc12` [Compound 16], for which the Emax lay in the range of 70 to 100%. Also, the EC50 under setting [1] was 200 to 800 nM.
The like results for `COC(=O)C(=O)c1c[nH]c2cc(Cl)c(-c3ccc(C4(CO)CC4)cc3)cc12` [Compound 17] were, in that order, 70 to 100% and less than 200 nM.
The like results for `CNC(=O)C(=O)c1c[nH]c2cc(Cl)c(-c3ccc(C4(CO)CC4)cc3)cc12` [Compound 18] were, in that order, 50 to 70% and 200 to 800 nM.
With `Cn1ccc2cc(-c3cc4c(C(=O)NCc5ccco5)c(O)[nH]c4cc3Cl)ccc21` [Compound 19], the Emax is greater than 100%. Further, the EC50 under setting [1] was in the range of 200 to 800 nM.
For the molecule `Cn1ccc2cc(-c3cc4c(C(=O)NCC(=O)O)c(O)[nH]c4cc3Cl)ccc21` [Compound 20], the Emax is greater than 100%. The 50% effective concentration (EC50) under setting [1] lay in the range of 200 to 800 nM.
The like results for `O=C1Nc2cc(Cl)c(-c3ccc(C4(CO)CC4)cc3)cc2C1=CNCc1ccco1` [Compound 21] were, in that order, less than 50% and greater than 800 nM.
For `Cn1ccc2cc(-c3cc4c(cc3Cl)NC(=O)C4(C)C(=O)NCc3ccco3)ccc21` (centres unmarked) [Compound 22], under setting [1], the EC50 is greater than 800 nM.
On to `O=C(Nc1ccn[nH]1)c1c[nH]c2cc(Cl)c(-c3ccc(C4(CO)CC4)cc3)cc12` [Compound 23], for which the Emax was greater than 100%. In addition, the half-maximal effective concentration (EC50) under setting [1] is less than 200 nM.
Consider `O=C(Nc1ncco1)c1c[nH]c2cc(Cl)c(-c3ccc(-c4ccccc4)cc3)cc12` [Compound 24], for which the 50% effective concentration (EC50) was greater than 800 nM and the Emax was greater than 100%.
For the molecule `CN(Cc1cccs1)C(=O)c1c[nH]c2cc(Cl)c(-c3ccc(C4(CO)CC4)cc3)cc12` [Compound 25], the EC50 was greater than 800 nM and the Emax was less than 50%.
The like results for `CN(C(=O)c1c[nH]c2cc(Cl)c(-c3ccc(C4(CO)CC4)cc3)cc12)c1cc[nH]n1` [Compound 27] were, in that order, greater than 800 nM and greater than 100%.
`O=C(NCc1ccco1)c1c(O)[nH]c2cc(Cl)c(-c3ccc(C4(CO)CC4)cc3)cc12` [Compound 31]: the Emax is greater than 100%. Besides, under setting [1], the half-maximal effective concentration (EC50) was in the range of 200 to 800 nM.
The like results for `Cn1ccc2cc(-c3cc4c(C(=O)NCc5ncco5)c(O)[nH]c4cc3Cl)ccc21` [Compound 32] were, in that order, 70 to 100% and 200 to 800 nM.
The like results for `O=C(Nc1cc[nH]n1)c1c[nH]c2cc(Cl)c(-c3ccc(C4(O)CCC4)cc3)cc12` [Compound 33] were, in that order, greater than 100% and 200 to 800 nM.
Turning to `O=C(Nc1cc[nH]n1)c1c[nH]c2cc(Cl)c(-c3ccc(-c4ccccc4O)cc3)cc12` [Compound 34], the EC50 was 200 to 800 nM and the Emax is greater than 100%.
`O=C(NCc1nnn[nH]1)c1c[nH]c2cc(Cl)c(-c3ccc(C4(CO)CC4)cc3)cc12` [Compound 35]: the Emax is greater than 100%. In addition, the concentration giving a half-maximal response (EC50) under setting [1] is less than 200 nM.
The like results for `O=C(NCc1ccco1)c1c[nH]c2cc(Cl)c(-c3ccc(-c4ccccc4O)cc3)cc12` [Compound 36] were, in that order, 50 to 70% and less than 200 nM.
The like results for `O=C(NCc1ccco1)c1c(O)[nH]c2cc(Cl)c(-c3ccc(-c4ccccc4O)cc3)cc12` [Compound 37] were, in that order, greater than 100% and 200 to 800 nM.
